Data reported in the NIST ThermoML archive (doi:10.1016/j.jct.2015.02.022).
Structures can show the parent of a compound that is named as a salt. Numbers after ± are expanded uncertainties.

Columns and labels:
[1] = Liquid; for mass density / viscosity: 101.33 kPa; for mass density: Pycnometric method; for vapor or sublimation pressure: Closed cell (Static) method; for viscosity: Capillary tube (Ostwald / Ubbelohde) method
[2] = refractive index (Na D-line) (dimensionless); conditions: 293.15 K; 101.33 kPa; Liquid; Standard Abbe refractometry

CCOC(=O)C(F)(F)F [ethyl trifluoroacetate]
[1]
Conditions | mass density [kg/m3] | vapor or sublimation pressure [kPa] | viscosity [mPa·s]
278.08 K | 1218.9 ± 0.8 | – | –
285.15 K | 1205.9 ± 0.8 | – | –
289.23 K | 1197.6 ± 0.8 | – | –
293.35 K | – | 17.93 ± 0.12 | –
293.45 K | – | – | 0.4635 ± 0.0098
293.68 K | 1188.3 ± 0.8 | – | –
296.02 K | – | – | 0.4506 ± 0.0095
298.3 K | – | 22.86 ± 0.15 | –
298.63 K | – | – | 0.4356 ± 0.0092
298.84 K | 1179 ± 0.8 | – | –
300.75 K | – | 25.36 ± 0.17 | –
301.19 K | – | – | 0.4234 ± 0.0089
303.35 K | – | 28.45 ± 0.19 | –
303.75 K | – | – | 0.4107 ± 0.0087
303.86 K | 1168 ± 0.8 | – | –
305.85 K | – | 31.2 ± 0.21 | –
306.3 K | – | – | 0.3986 ± 0.0084
307.89 K | 1160.9 ± 0.8 | – | –
308.35 K | – | 34.13 ± 0.23 | –
308.85 K | – | – | 0.3881 ± 0.0082
310.85 K | – | 38 ± 0.25 | –
311.33 K | – | – | 0.3775 ± 0.008
312.65 K | 1151.4 ± 0.8 | – | –
313.35 K | – | 42.3 ± 0.28 | –
313.93 K | – | – | 0.3674 ± 0.0078
315.85 K | – | 47.2 ± 0.31 | –
316.43 K | – | – | 0.3581 ± 0.0076
317.43 K | 1142.2 ± 0.8 | – | –
318.4 K | – | 52 ± 0.35 | –
318.96 K | – | – | 0.3497 ± 0.0074
320.97 K | – | 57.2 ± 0.38 | –
321.63 K | – | – | 0.3399 ± 0.0072
322.5 K | 1131.3 ± 0.8 | – | –
323.45 K | – | 63.2 ± 0.42 | –
324.15 K | – | – | 0.3314 ± 0.0071
326.15 K | – | 70.64 ± 0.47 | –
326.69 K | – | – | 0.323 ± 0.007
328.75 K | – | 77.9 ± 0.52 | –
329.16 K | – | – | 0.3153 ± 0.0067
331.45 K | – | 86.5 ± 0.57 | –
331.64 K | – | – | 0.3075 ± 0.0066
334.05 K | – | 94.15 ± 0.62 | –
334.32 K | – | – | 0.3009 ± 0.0064
335.25 K | – | 99.92 ± 0.66 | –
335.65 K | – | 101.33 ± 0.67 | –

Conditions | refractive index
[2] | 1.3086 ± 0.0007

CO [methanol]
[1]
Conditions | vapor or sublimation pressure [kPa] | viscosity [mPa·s]
293.35 K | 13.54 ± 0.09 | –
302.45 K | – | 0.513 ± 0.011
303.35 K | 22.05 ± 0.15 | –
310.85 K | 31.07 ± 0.21 | –
313.5 K | – | 0.443 ± 0.009
320.97 K | 49.45 ± 0.33 | –
323.55 K | – | 0.386 ± 0.008
331.45 K | 77.05 ± 0.51 | –
333.85 K | – | 0.345 ± 0.007
335.95 K | 95.83 ± 0.64 | –
